Results on 52 compounds are retold here after PubChem BioAssay AID1996.

As usually defined, the kinetic solubility is the concentration staying in solution when a stock, usually in DMSO, is diluted into the medium.

Converted amounts (≈) assume the structure as drawn.

For this series the following is noted: buffer; pH 7.4; 200.0 µM.
In turn, `COc1cccc(CC(=O)Nc2nc(-c3ccc(F)c(F)c3)cs2)c1` yielded a kinetic solubility of 0.5 µg/mL (≈ 1.39 µM).

As for `Cc1nc2c(C)c(C)c(C)c(C)c2nc1C`, the kinetic solubility was under 0.2 µg/mL.

`O=Cc1c(NCCN2CCCC2)c2ccccc2[nH]c1=O`: the kinetic solubility was over 42.8 µg/mL.

For the compound `Cc1cccc(C)c1OCC(=O)Nc1ccccc1N1CCCCC1`, the kinetic solubility is under 0.4 µg/mL.

In turn, `Cc1cc(C)c(S(=O)(=O)c2cccc(C)c2C)c(=O)[nH]1` gave a solubility (kinetic) of over 43.7 µg/mL.

As for `CC(=O)Nc1cccc(NC(=O)Nc2cccc3ccccc23)c1`, the solubility (kinetic) came out at 0.8 µg/mL (≈ 2.5 µM).

Compound `Cc1ccc(CNC(=O)C2CC(=O)N(CCC(C)C)C2)cc1` (configuration not stated) yielded a kinetic solubility of 40.5 µg/mL (≈ 134 µM).

`C1CNC(C23CC4CC(CC(C4)C2)C3)=N1` registered a kinetic solubility of over 30.6 µg/mL.

Consider `COc1ccccc1C(=O)O/N=C(\c1ccccc1)c1ccncc1`, for which the kinetic solubility was 34 µg/mL (≈ 102 µM).

In the case of `CCOC(=O)c1c(N=CN(C)C)c2cc([N+](=O)[O-])cnc2n1C`, the solubility (kinetic) came to 35 µg/mL (≈ 110 µM).

In turn, `COc1ccccc1N1C(=O)c2cccnc2C1=O` yielded a kinetic solubility of 34.9 µg/mL (≈ 137 µM).

`O=C(CCc1ccccc1)NCC1OCCc2ccccc21` (configuration not stated) displayed a kinetic solubility of over 44.3 µg/mL.

Turning to `COc1ccc(C)cc1NC(=O)CN1C(=O)C2CC=CCC2C1=O` (configuration not stated), the solubility (kinetic) is over 49.3 µg/mL.

Turning to `Cc1cc(Nc2ccc(O)cc2)n2c(nc3ccccc32)c1C#N`, the kinetic solubility is 0.9 µg/mL (≈ 2.86 µM).

Consider `COc1ccc(CN2CN(C3CCCC3)CSC2=S)cc1`, for which the solubility (kinetic) was found to be 0.8 µg/mL (≈ 2.48 µM).

The compound `Cc1ccc(C(=O)NCCc2ccccc2)cc1N1CCCC1=O` gave a kinetic solubility of over 48.4 µg/mL.

Regarding `Cc1ccccc1CNC(=O)CN1C(=O)c2ccccc2S1(=O)=O`, the kinetic solubility worked out at 11.2 µg/mL (≈ 32.5 µM).

`COc1ccc(-c2cc(C(=O)NC3CC3)c3ccccc3n2)cc1` had a kinetic solubility of 1.6 µg/mL (≈ 5.03 µM).

Consider `Br.CC1=C(c2ccccc2)SC2=NCCN21`, for which the solubility (kinetic) was over 44.6 µg/mL.

Consider `Cc1ccccc1NC(=S)NC12CN3CN(CN(C3)C1)C2`, for which the kinetic solubility is over 45.5 µg/mL.

Consider `CCOc1ccc(Nc2cc(C)nc3c(C)cccc23)cc1`, for which the kinetic solubility was 24.5 µg/mL (≈ 83.8 µM).

The compound `O=C(c1cc2cc(Cl)ccc2[nH]1)N1CCCCC1` returned a solubility (kinetic) of 2 µg/mL (≈ 7.61 µM).

On to `CCOC(=O)c1cn(C2CC2)c2c(F)c(NCCCN(C)C)c(F)cc2c1=O`, for which the kinetic solubility was determined as 53.5 µg/mL (≈ 136 µM).

The compound `Cc1cc(C(=O)OCC(=O)N2CCCCCC2)ccc1[N+](=O)[O-]` returned a kinetic solubility of over 48.1 µg/mL.

Consider `O=C(Nc1cccnc1)c1ccccc1Cl`, for which the kinetic solubility was over 34.9 µg/mL.

With `CN(C)C(CNC(=O)c1cccs1)c1ccco1` (configuration not stated), the kinetic solubility was over 39.7 µg/mL.

As for `CCOC(=O)c1sc(NC(=O)Cc2ccccc2OC)nc1C`, the kinetic solubility was found to be 14.7 µg/mL (≈ 44 µM).

The compound `COc1ccc(CCNC(=O)CCNC(=O)c2ccco2)cc1` registered a solubility (kinetic) of over 47.5 µg/mL.

`O=C1ON=C(c2ccccc2)/C1=C/c1cccnc1`: the kinetic solubility came to 35.8 µg/mL (≈ 143 µM).

For `N#Cc1ccsc1NC(=O)C1=COCCO1`, the solubility (kinetic) is over 35.4 µg/mL.

As for `Fc1ccccc1NC(=S)NC1CCCC1`, the kinetic solubility came out at 35.2 µg/mL (≈ 148 µM).

For the compound `Cc1ccc(CNC(=O)CSc2nc3ccccc3c(=O)n2CC2CCCO2)cc1` (configuration not stated), the kinetic solubility is 4.5 µg/mL (≈ 10.6 µM).

With `O=S(=O)(NC1=NCCCCC1)c1ccc(Cl)cc1`, the solubility (kinetic) was over 43 µg/mL.

Take `COCCCn1c(=O)c2sccc2n(Cc2ccccc2C)c1=O`: the solubility (kinetic) is over 51.7 µg/mL.

In the case of `CCCOc1ccc(Oc2nc(-c3ccncc3)nc3ccccc23)cc1`, the kinetic solubility is under 0.3 µg/mL.

`O=C(Nc1cc(S(=O)(=O)N2CCOCC2)ccc1O)c1ccc(S(=O)(=O)N2CCCCC2)cc1` gave a solubility (kinetic) of 4.8 µg/mL (≈ 9.42 µM).

Compound `COc1ccccc1OCCNC(=O)c1ccc(C)o1` came in with a solubility (kinetic) of over 41.3 µg/mL.

With `N#C/C(=C/c1cccs1)c1ccccn1`, the solubility (kinetic) is 7 µg/mL (≈ 33 µM).

For the compound `CC1CC(C)CN(C(=O)c2ccc3ncsc3c2)C1` (configuration not stated), the solubility (kinetic) was over 41.2 µg/mL.

In the case of `CC1CCC2(CC1)NC(=O)N(CC(=O)c1ccc3c(c1)OCO3)C2=O` (configuration not stated), the solubility (kinetic) stood at 3.8 µg/mL (≈ 11 µM).

As to `O=C(c1ccccc1)N1CCC2(CC1)NCCc1[nH]cnc12`, the solubility (kinetic) is 42.7 µg/mL (≈ 144 µM).

For the compound `COc1ccccc1CNC(=O)CCNC(=O)c1ccco1`, the solubility (kinetic) was over 45.3 µg/mL.

Compound `O=C(c1ccc2c(c1)OCO2)C1CCCN(Cc2ccccn2)C1` (configuration not stated) had a kinetic solubility of 32.8 µg/mL (≈ 101 µM).

The compound `N/C(=N\OC(=O)Cc1ccccc1)c1cccc(Br)c1` registered a kinetic solubility of 1.1 µg/mL (≈ 3.3 µM).

Compound `O=C(Nc1ccncc1)OCc1ccccc1` registered a kinetic solubility of over 34.2 µg/mL.

`c1cncc(C2OCC3(CO2)COC(c2cccnc2)OC3)c1` (configuration not stated) showed a solubility (kinetic) of over 47.2 µg/mL.

On to `O=C(COC(=O)CSc1ccccc1)Nc1ccc(F)cc1F`, for which the solubility (kinetic) was over 50.6 µg/mL.

In the case of `O=C(NC1CCCCCCC1)c1ccc(F)cc1`, the kinetic solubility is 25.8 µg/mL (≈ 103 µM).

In the case of `CC1CN(C(=O)COC(=O)c2ccc(O)cc2)CC(C)O1` (configuration not stated), the kinetic solubility is 43.8 µg/mL (≈ 149 µM).

`CCOC(=O)c1sc2nc(C)nc(N3CCN(S(=O)(=O)c4ccccc4)CC3)c2c1C` came in with a solubility (kinetic) of 2.5 µg/mL (≈ 5.43 µM).

Consider `CC(Oc1ccccc1)C(=O)Nc1cccc([N+](=O)[O-])c1` (configuration not stated), for which the solubility (kinetic) was over 42.9 µg/mL.

In the case of `CCN(CC(=O)NCc1cccs1)C(=O)c1cccc(Cl)c1`, the kinetic solubility was over 50.5 µg/mL.
